“And” between values parts separate entries of the source, which are not always exact repeats. Equal entries are not always repeated. Where two headings read alike, the source gives them in different places.
Legend:
[1] = test system: L929 cells; assay: TZ-induced L929 cell necroptosis model (CCK8); format: cell-based; details: Mus musculus
Experimental: (§1) Cell necroptosis protection assays were performed in 96-well cell culture plates. Cells were plated in each well and cultured at 37 °C overnight. […] The cell survival rate was determined using a CCK8 cell viability assay kit and CLARIOstar (v5.61). […] All experiments were performed at least two times, and each EC50 value was expressed as mean ± standard deviation (SD).

[2] = test system: U937 cells; assay: TSZ-induced U937 cell necroptosis model (CCK8); format: cell-based; details: Homo sapiens, U-937
Experimental: as §1

[3] = Pharmacokinetics in Sprague-Dawley rats; format: in vivo; details: for Plasma Concentraion / concentration at 0.083 h / concentration at 0.5 h / concentration at 1 h / concentration at 2 h / concentration at 4 h / concentration at 6 h / concentration at 8 h: animals 1-3; for concentration at 0.083 h / concentration at 0.5 h / concentration at 1 h / concentration at 2 h / concentration at 4 h / concentration at 6 h / concentration at 8 h: read-out: Plasma Concentraion; for MRT inf: read-out: MRT0-∞
Experimental: The PK properties of compounds were examined in male Sprague-Dawley rats (n = 3 per group, weight: 180–220 g). Compounds were dissolved in saline with 5% (v/v) DMSO plus 40% (v/v) PEG400. The animals were administered with a single dose of 5 mg/kg (intravenous injection (i.v.)), 20 mg/kg (intraperitoneal injection (i.p.) or oral gavage (p.o.)). Blood samples were collected at 0.083, 0.25, 0.5, 1, 2, 4, 6, 8, 10 and 24 h, and centrifuged to isolate plasma. Subsequently, the plasma compound concentrations were determined by LC-MS/MS-13 (TQ5500, SCIEX), and the PK parameters were calculated using Phoenix WinNonlin 7.0.

[4] = test system: TNFα-induced SIRS; assay: TNFα-induced SIRS mouse model: body temperature loss; format: in vivo, C57BL/6 female mice; details: for ΔTemperature Average: group average
Experimental: (§2) The body temperatures of the mice were continuously monitored until 6 h after TNFα administration. At 6 h after TNFα injection, four mice in each group were killed at random, and the serums, heart, liver, spleen, lung, and kidney tissues were collected for analysis.

[5] = test system: IL-1β; assay: TNFα-induced SIRS mouse model: serum IL-1β (ELISA); format: in vivo, C57BL/6 female mice; details: 40 mg/kg i.p.
Experimental: as §2
In the TNFα-induced SIRS model, at 6 h after TNFα injection, four mice in each group were killed at random, and the serums were collected, the serum concentrations of IL-1β and IL-6 were measured using ELISA kits (Neobioscience Technology) according to manufacturer’s instructions. […] The supernatant was collected by sequential centrifugation at 500 × g for 10 min and 3000 × g for 10 min. The concentrations of cytokines TNFα, IL-6, and IL-1β were measured using ELISA kits (Neobioscience Technology).

[6] = male, Sprague-Dawley, rat, plasma, ip, 20 mg/kg
[7] = male, Sprague-Dawley, rat, plasma, iv, 5 mg/kg
[8] = male, Sprague-Dawley, rat, plasma, po, 20 mg/kg
[9] = 0 h after mTNFα, individual mice

CC(C)C(=O)Nc1nc2cc(-c3ccc4c(c3)c(C(=O)NC(C)c3ccccc3)cn4C)ccn2n1 (centres unmarked) [RI-962]
viability at 56 pM ([1]; L929, 0.000056 μM): 19.1%
viability at 0.000169 µM ([1]; L929, 0.000169 μM): 22.9%
viability at 0.000508 µM ([1]; L929, 0.000508 μM): 24.8%
viability at 0.001524 µM ([1]; L929, 0.001524 μM): 35.2%
viability at 0.004572 µM ([1]; L929, 0.004572 μM): 62.2%
viability at 0.013717 µM ([1]; L929, 0.013717 μM): 83.1%
viability at 0.041152 µM ([1]; L929, 0.041152 μM): 89.4%
viability at 0.123457 µM ([1]; L929, 0.123457 μM): 105%
viability at 0.37037 µM ([1]; L929, 0.370370 μM): 98.5%
viability at 1.11111 µM ([1]; L929, 1.111111 μM): 103%
viability at 3.33333 µM ([1]; L929, 3.333333 μM): 99.1%
viability at 10 µM ([1]; L929, 10.000000 μM): 91.6%
EC50 ([1]; L929 treated with TZ, 24 h): 4.2 nM
viability at 56 pM ([2]; 0.000056 μM): 1.42%
viability at 0.000169 µM ([2]; 0.000169 μM): 0.727%
viability at 0.000508 µM ([2]; 0.000508 μM): 0.579%
viability at 0.001524 µM ([2]; 0.001524 μM): 2.66%
viability at 0.004572 µM ([2]; 0.004572 μM): 8.5%
viability at 0.013717 µM ([2]; 0.013717 μM): 37.9%
viability at 0.041152 µM ([2]; 0.041152 μM): 78%
viability at 0.123457 µM ([2]; 0.123457 μM): 84.5%
viability at 0.37037 µM ([2]; 0.370370 μM): 96.7%
viability at 1.11111 µM ([2]; 1.111111 μM): 96.2%
viability at 3.33333 µM ([2]; 3.333333 μM): 90.4%
EC50 ([2]; U937 treated with TSZ, 24 h): 17.8 nM
Plasma Concentraion ([3]; Supplementary Figure 7 panel a, 0.083 h): 11181.2 ng/mL and 13503.2 ng/mL
Plasma Concentraion ([3]; Supplementary Figure 7 panel a, 0.5 h): 2022.7 ng/mL and 2493.56 ng/mL
Plasma Concentraion ([3]; Supplementary Figure 7 panel a, 1 h): 324.429 ng/mL and 368.25 ng/mL
Plasma Concentraion ([3]; Supplementary Figure 7 panel a, 2 h): 53.1161 ng/mL and 49.8208 ng/mL
Plasma Concentraion ([3]; Supplementary Figure 7 panel a, 4 h): 20.793 ng/mL and 12.876 ng/mL
Plasma Concentraion ([3]; Supplementary Figure 7 panel a, 6 h): 12.1272 ng/mL and 7.691 ng/mL
Plasma Concentraion ([3]; Supplementary Figure 7 panel a, 8 h): 5.677 ng/mL and 3.748 ng/mL
Plasma Concentraion ([3]; Supplementary Figure 7 panel b, 0.083 h): 127.196 ng/mL and 183.609 ng/mL
Plasma Concentraion ([3]; Supplementary Figure 7 panel b, 0.5 h): 350.948 ng/mL and 617.101 ng/mL
Plasma Concentraion ([3]; Supplementary Figure 7 panel b, 6 h): 11.7068 ng/mL and 13.5938 ng/mL
Plasma Concentraion ([3]; Supplementary Figure 7 panel b, 8 h): 8.501 ng/mL and 5.3 ng/mL
Plasma Concentraion ([3]; Supplementary Figure 7 panel c, 0.083 h): 841.69 ng/mL and 1224.6 ng/mL
Plasma Concentraion ([3]; Supplementary Figure 7 panel c, 0.5 h): 4149.3 ng/mL and 2823.2 ng/mL
Plasma Concentraion ([3]; Supplementary Figure 7 panel c, 1 h): 3680.1 ng/mL and 2363 ng/mL
Plasma Concentraion ([3]; Supplementary Figure 7 panel c, 2 h): 635.78 ng/mL and 701.71 ng/mL
Plasma Concentraion ([3]; Supplementary Figure 7 panel c, 4 h): 226.7 ng/mL and 115.63 ng/mL
concentration at 0.083 h ([3]; male, Sprague-Dawley, rat, plasma, intraperitoneal, 20 mg/kg, Supplementary Figure 7 panel c, 0.083 h): 1010 ng/mL
concentration at 0.5 h ([3]; male, Sprague-Dawley, rat, plasma, intraperitoneal, 20 mg/kg, Supplementary Figure 7 panel c, 0.5 h): 3840 ng/mL
concentration at 1 h ([3]; male, Sprague-Dawley, rat, plasma, intraperitoneal, 20 mg/kg, Supplementary Figure 7 panel c, 1 h): 3080 ng/mL
concentration at 2 h ([3]; male, Sprague-Dawley, rat, plasma, intraperitoneal, 20 mg/kg, Supplementary Figure 7 panel c, 2 h): 737 ng/mL
concentration at 4 h ([3]; male, Sprague-Dawley, rat, plasma, intraperitoneal, 20 mg/kg, Supplementary Figure 7 panel c, 4 h): 229 ng/mL
concentration at 0.083 h ([3]; male, Sprague-Dawley, rat, plasma, intravenous, 5 mg/kg, Supplementary Figure 7 panel a, 0.083 h): 11800 ng/mL
concentration at 0.5 h ([3]; male, Sprague-Dawley, rat, plasma, intravenous, 5 mg/kg, Supplementary Figure 7 panel a, 0.5 h): 1610 ng/mL
concentration at 1 h ([3]; male, Sprague-Dawley, rat, plasma, intravenous, 5 mg/kg, Supplementary Figure 7 panel a, 1 h): 291 ng/mL
concentration at 2 h ([3]; male, Sprague-Dawley, rat, plasma, intravenous, 5 mg/kg, Supplementary Figure 7 panel a, 2 h): 59.6 ng/mL
concentration at 4 h ([3]; male, Sprague-Dawley, rat, plasma, intravenous, 5 mg/kg, Supplementary Figure 7 panel a, 4 h): 20.6 ng/mL
concentration at 6 h ([3]; male, Sprague-Dawley, rat, plasma, intravenous, 5 mg/kg, Supplementary Figure 7 panel a, 6 h): 11.6 ng/mL
concentration at 8 h ([3]; male, Sprague-Dawley, rat, plasma, intravenous, 5 mg/kg, Supplementary Figure 7 panel a, 8 h): 6.4 ng/mL
AUC(0-inf) [3, 6]: 6610 ± 1120 ng·h/mL
AUC(0-t) [3, 6]: 6460 ng·h/mL
Cmax [3, 6]: 3600 ± 693 ng/mL
Tmax [3, 6]: 0.5 h
bioavailability [3, 6]: 35.7 ± 6.3%
half-life [3, 6]: 8.5 ± 1.6 h
MRT inf [3, 6]: 2.8 ± 0.1 h
AUC(0-inf) [3, 7]: 4540 ± 546 ng·h/mL
AUC(0-t) [3, 7]: 4530 ng·h/mL
Cmax [3, 7]: 12200 ± 1200 ng/mL
Tmax [3, 7]: 0.1 h
clearance [3, 7]: 18.5 ± 2.1 mL/min/kg
half-life [3, 7]: 2.1 ± 0.2 h
MRT inf [3, 7]: 0.4 h
Vd ([3]; male, Sprague-Dawley, rat, plasma, iv, 5 mg/kg, read-out: Vss): 0.4 ± 0.1 L/kg
concentration at 0.083 h ([3]; male, Sprague-Dawley, rat, plasma, oral, 20 mg/kg, Supplementary Figure 7 panel b, 0.083 h): 113 ng/mL
concentration at 0.5 h ([3]; male, Sprague-Dawley, rat, plasma, oral, 20 mg/kg, Supplementary Figure 7 panel b, 0.5 h): 418 ng/mL
concentration at 6 h ([3]; male, Sprague-Dawley, rat, plasma, oral, 20 mg/kg, Supplementary Figure 7 panel b, 6 h): 11.3 ng/mL
concentration at 8 h ([3]; male, Sprague-Dawley, rat, plasma, oral, 20 mg/kg, Supplementary Figure 7 panel b, 8 h): 7.91 ng/mL
AUC(0-inf) [3, 8]: 1600 ± 896 ng·h/mL
AUC(0-t) [3, 8]: 1590 ng·h/mL
Cmax [3, 8]: 674 ± 425 ng/mL
Tmax [3, 8]: 0.8 ± 1 h
half-life [3, 8]: 1.3 ± 0.2 h
MRT inf [3, 8]: 1.8 ± 0.2 h
AUC0–t ([3]; p.o., 20 mg/kg): 1594.9 ± 891.8 ng·h/mL
F (%) ([3]; p.o., 20 mg/kg): 8.8 ± 5.0%
ΔTemperature Average ([4]; 0 h after mTNFα): 0 °C
Temperature [4, 9]: 36.3 °C (4×) and 36.5 °C (3×) and 36.2 °C (5×) and 36.6 °C (2×)
ΔTemperature [4, 9]: 0 °C
TNFα-induced temperature loss ([4]; 40 mg/kg i.p.): remarkably reduced
ΔTemperature Average ([4]; 1 h after mTNFα): -0.06429 °C
Temperature ([4]; 1 h after mTNFα, individual mice): 36.3 °C (5×) and 36.2 °C (5×) and 36.1 °C and 36.5 °C (2×) and 36.4 °C
ΔTemperature Average ([4]; 2 h after mTNFα): 0.05 °C
Temperature ([4]; 2 h after mTNFα, individual mice): 36.3 °C (7×) and 36.4 °C and 36.5 °C (5×) and 36.6 °C
ΔTemperature Average ([4]; 3 h after mTNFα): 0.01429 °C
Temperature ([4]; 3 h after mTNFα, individual mice): 36.3 °C (6×) and 36.4 °C (4×) and 36.5 °C (3×) and 36.2 °C
ΔTemperature Average ([4]; 4 h after mTNFα): 0.007143 °C
Temperature ([4]; 4 h after mTNFα, individual mice): 36.2 °C (2×) and 36.5 °C (4×) and 36.4 °C (2×) and 36.3 °C (6×)
ΔTemperature Average ([4]; 5 h after mTNFα): -0.02143 °C
Temperature ([4]; 5 h after mTNFα, individual mice): 36.3 °C (7×) and 36.4 °C (3×) and 36.1 °C and 36.5 °C (2×) and 36.2 °C
ΔTemperature Average ([4]; 6 h after mTNFα): -0.1571 °C
Temperature ([4]; 6 h after mTNFα, individual mice): 36.3 °C (8×) and 36.4 °C and 35.9 °C (3×) and 36 °C and 36.2 °C
concentration of IL-1β ([5]; 6 h after TNFα): remarkably reduced
IL-1β ([5]; serum 6 h after TNFα, animals 1-4): 95.48 pg/mL and 91.16 pg/mL and 77.29 pg/mL and 76.39 pg/mL
